Values quoted from earlier work, collected in patent US20200222348A1, “BIMODAL MODIFIED RELEASE COMPOSITIONS FOR CANCER TREATMENT” (MUSLI THYROPEUTICS LTD., priority 2017, published 2020).

Conditions: stated as general knowledge

biological half-life (T3, short biological half-life): 48-60 hours
Tmax in serum (T3 in serum): about 4 hrs
SMILES: N[C@@H](Cc1cc(I)c(Oc2ccc(O)c(I)c2)c(I)c1)C(=O)O [Example T3, triiodothyronine]
